# Measurements: ChEMBL document CHEMBL2401692, “Synthesis, structure-activity relationships, and in vivo efficacy of the novel potent and selective anaplastic lymphoma kinase (ALK) inhibitor 5-chloro-N2-(2-isopropoxy-5-methyl-4-(piperidin-4-yl)phenyl)-N4-(2-(isopropylsulfonyl)phenyl)pyrimidine-2,4-diamine (LDK378) currently in phase 1 and phase …” (J Med Chem, 2013)
# Experiments:
# [1] = Intrinsic clearance in rat liver microsomes; type: ADME, Microsome; details: read-out: CLH
# [2] = biological target: Fibroblast growth factor receptor 4 (Homo sapiens, UniProt P22455); test: Inhibition of FGFR4 (unknown origin) after 60 mins
# Rattus norvegicus = test: Inhibition of ALK-mediated STAT3 phosphorylation in human KARPAS299 cells xenografted in Rowett nude rat at 50 mg/kg, po after 72 hrs Western blotting analysis relative to control; type: functional; details: KARPAS-299, 72 h
# KARPAS-299 [3] = test: Antitumor activity against human KARPAS299 cells xenografted in Rowett nude rat assessed as tumor growth inhibition factor at 6.25 mg/kg, po for 14 days measured 7 to 72 hrs post dosing relative to control; type: functional
# [4] = Oral bioavailability in cynomolgus monkey at 60 mg/kg; type: ADME, organism-based, Macaca fascicularis; details: in vivo
# [5] = biological target: Hepatocyte growth factor receptor (Homo sapiens, UniProt P08581); test: Inhibition of TEL-fused MET (unknown origin) by cell-based assay
# [6] = biological target: Tyrosine-protein kinase BTK (Homo sapiens, UniProt Q06187); test: Inhibition of BTK (unknown origin) after 60 mins
# Chain of Tyrosine-protein kinase BTK (Q06187 whole entry, the tested form may be a part): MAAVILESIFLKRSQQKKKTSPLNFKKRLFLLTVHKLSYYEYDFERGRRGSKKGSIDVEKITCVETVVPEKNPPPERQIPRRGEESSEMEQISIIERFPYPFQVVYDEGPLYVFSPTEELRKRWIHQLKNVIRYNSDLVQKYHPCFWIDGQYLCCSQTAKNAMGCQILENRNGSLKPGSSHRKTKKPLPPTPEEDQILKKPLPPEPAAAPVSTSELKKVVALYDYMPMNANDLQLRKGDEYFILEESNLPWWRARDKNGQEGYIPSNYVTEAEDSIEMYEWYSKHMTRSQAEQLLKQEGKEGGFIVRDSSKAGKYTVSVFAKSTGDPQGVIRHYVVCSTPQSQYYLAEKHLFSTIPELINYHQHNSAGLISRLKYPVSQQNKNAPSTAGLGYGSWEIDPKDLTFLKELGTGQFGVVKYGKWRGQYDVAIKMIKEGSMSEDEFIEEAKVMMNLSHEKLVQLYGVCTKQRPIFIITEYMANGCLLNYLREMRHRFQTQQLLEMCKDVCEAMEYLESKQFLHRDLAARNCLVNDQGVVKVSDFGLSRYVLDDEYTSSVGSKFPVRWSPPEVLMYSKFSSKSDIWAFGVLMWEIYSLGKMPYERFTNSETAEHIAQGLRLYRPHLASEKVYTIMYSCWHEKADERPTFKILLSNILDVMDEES
# [7] = biological target: Vascular endothelial growth factor receptor 2 (Homo sapiens, UniProt P35968); test: Inhibition of TEL-fused KDR (unknown origin) by cell-based assay
# Chain of Vascular endothelial growth factor receptor 2 (P35968 20-1356 limits assumed): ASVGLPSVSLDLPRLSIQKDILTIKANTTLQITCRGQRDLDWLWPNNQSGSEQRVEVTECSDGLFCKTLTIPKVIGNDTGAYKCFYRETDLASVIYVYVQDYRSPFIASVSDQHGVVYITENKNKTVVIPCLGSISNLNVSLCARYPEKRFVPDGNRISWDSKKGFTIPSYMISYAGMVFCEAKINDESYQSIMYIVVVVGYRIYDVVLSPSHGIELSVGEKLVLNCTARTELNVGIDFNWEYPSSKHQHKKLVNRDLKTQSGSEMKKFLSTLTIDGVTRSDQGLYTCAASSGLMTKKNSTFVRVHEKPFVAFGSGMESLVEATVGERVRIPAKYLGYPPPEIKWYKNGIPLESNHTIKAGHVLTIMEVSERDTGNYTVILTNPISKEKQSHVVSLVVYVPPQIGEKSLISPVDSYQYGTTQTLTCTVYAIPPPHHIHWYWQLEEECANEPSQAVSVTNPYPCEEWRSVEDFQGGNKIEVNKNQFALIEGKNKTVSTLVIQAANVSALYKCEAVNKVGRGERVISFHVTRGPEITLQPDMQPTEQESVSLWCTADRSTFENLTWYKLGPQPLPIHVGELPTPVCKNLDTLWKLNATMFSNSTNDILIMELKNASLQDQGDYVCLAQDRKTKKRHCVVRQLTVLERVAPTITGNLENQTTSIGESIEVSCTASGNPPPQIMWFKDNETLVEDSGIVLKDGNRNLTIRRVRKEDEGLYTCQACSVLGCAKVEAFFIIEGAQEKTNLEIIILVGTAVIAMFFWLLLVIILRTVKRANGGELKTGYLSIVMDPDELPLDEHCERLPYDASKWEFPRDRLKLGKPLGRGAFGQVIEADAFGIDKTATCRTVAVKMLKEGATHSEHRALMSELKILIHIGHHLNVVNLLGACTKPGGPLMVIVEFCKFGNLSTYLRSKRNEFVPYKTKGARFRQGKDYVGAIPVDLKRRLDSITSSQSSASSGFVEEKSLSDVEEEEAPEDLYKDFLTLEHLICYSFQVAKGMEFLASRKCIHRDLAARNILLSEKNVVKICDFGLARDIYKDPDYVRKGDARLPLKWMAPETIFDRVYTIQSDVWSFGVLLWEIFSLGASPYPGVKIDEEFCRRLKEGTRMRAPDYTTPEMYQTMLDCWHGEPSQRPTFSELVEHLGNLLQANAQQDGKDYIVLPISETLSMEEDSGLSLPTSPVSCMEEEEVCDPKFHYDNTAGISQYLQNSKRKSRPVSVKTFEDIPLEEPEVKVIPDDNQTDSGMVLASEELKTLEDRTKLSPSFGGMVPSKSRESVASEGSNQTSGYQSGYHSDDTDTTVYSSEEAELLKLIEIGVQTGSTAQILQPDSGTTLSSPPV
# [8] = biological target: Transcription factor ETV6 (Homo sapiens, UniProt P41212); test: Inhibition of wild-type TEL (unknown origin) by cell-based assay
# [9] = AUC in BALB/c mouse at 20 mg/kg, po; type: ADME, organism-based; set-up: dose 20 mg/kg, route oral; details: plasma
# [10] = biological target: High affinity nerve growth factor receptor (Homo sapiens, UniProt P04629); test: Inhibition of TEL-fused TRKA (unknown origin) by cell-based assay
# [11] = Cmax in cynomolgus monkey at 5 mg/kg, iv; type: ADME, organism-based, Macaca fascicularis; set-up: dose 5 mg/kg, route intravenous; details: in vivo
# [12] = biological target: Tyrosine-protein kinase JAK3 (Homo sapiens, UniProt P52333); test: Inhibition of JAK3 (unknown origin) after 60 mins
# [13] = AUC in Beagle dog at 20 mg/kg, po; type: ADME, organism-based, Canis lupus familiaris; set-up: dose 20 mg/kg, route oral; details: plasma
# [14] = AUC in BALB/c mouse at 5 mg/kg, iv; type: ADME, organism-based; set-up: dose 5 mg/kg, route intravenous; details: plasma
# Rhesus monkey = test: Cardiotoxicity in monkey assessed as QTc prolongation; type: toxicity, organism-based, Macaca mulatta; details: in vivo
# [15] = biological target: Fibroblast growth factor receptor 3 (Homo sapiens, UniProt P22607); test: Inhibition of TEL-fused FGFR3 (unknown origin) by cell-based assay
# Chain of Fibroblast growth factor receptor 3 (P22607 23-806 limits assumed): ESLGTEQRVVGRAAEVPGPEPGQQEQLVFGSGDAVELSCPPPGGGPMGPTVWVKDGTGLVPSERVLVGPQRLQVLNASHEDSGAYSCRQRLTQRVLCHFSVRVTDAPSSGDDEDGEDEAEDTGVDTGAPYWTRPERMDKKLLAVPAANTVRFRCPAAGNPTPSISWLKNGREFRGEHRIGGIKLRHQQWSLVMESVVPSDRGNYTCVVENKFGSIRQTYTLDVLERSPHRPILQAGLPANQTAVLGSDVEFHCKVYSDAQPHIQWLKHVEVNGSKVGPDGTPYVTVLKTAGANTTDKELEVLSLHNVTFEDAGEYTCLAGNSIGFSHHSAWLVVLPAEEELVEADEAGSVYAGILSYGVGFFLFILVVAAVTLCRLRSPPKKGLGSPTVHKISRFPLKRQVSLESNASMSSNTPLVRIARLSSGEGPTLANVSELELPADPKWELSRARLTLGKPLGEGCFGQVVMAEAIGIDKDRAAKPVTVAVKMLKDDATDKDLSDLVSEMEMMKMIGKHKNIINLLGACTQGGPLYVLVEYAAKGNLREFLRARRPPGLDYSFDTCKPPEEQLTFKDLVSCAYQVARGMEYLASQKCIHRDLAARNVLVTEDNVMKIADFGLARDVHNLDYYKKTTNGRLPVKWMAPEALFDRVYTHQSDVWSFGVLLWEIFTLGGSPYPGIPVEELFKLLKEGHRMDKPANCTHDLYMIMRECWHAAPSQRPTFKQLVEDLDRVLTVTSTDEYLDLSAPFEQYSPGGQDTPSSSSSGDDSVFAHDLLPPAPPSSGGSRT
# KARPAS-299 [16] = test: Antitumor activity against human KARPAS299 cells xenografted in Rowett nude rat assessed as tumor regression at 25 mg/kg, po for 14 days measured 7 to 72 hrs post dosing relative to control; type: functional
# [17] = Volume of distribution at steady state in Sprague-Dawley rat at 3 mg/kg, iv; type: ADME, organism-based; set-up: dose 3 mg/kg, route intravenous; details: in vivo, read-out: Vdss
# [18] = biological target: Tyrosine-protein kinase ABL1 (Homo sapiens, UniProt P00519); test: Inhibition of ABL (unknown origin) after 60 mins
# [19] = Tmax in BALB/c mouse at 5 mg/kg, iv; type: ADME, organism-based; set-up: dose 5 mg/kg, route intravenous; details: in vivo
# [20] = Plasma clearance in Beagle dog at 5 mg/kg, iv; type: ADME, organism-based, Canis lupus familiaris; set-up: dose 5 mg/kg, route intravenous
# [21] = AUC in cynomolgus monkey at 60 mg/kg, po; type: ADME, organism-based, Macaca fascicularis; set-up: dose 60 mg/kg, route oral; details: plasma
# [22] = AUC in Sprague-Dawley rat at 10 mg/kg, po; type: ADME, organism-based; set-up: dose 10 mg/kg, route oral; details: plasma
# [23] = biological target: Tyrosine-protein kinase JAK1 (Homo sapiens, UniProt P23458); test: Inhibition of JAK1 (unknown origin) after 60 mins
# [24] = AUC in Sprague-Dawley rat at 3 mg/kg, iv; type: ADME, organism-based; set-up: dose 3 mg/kg, route intravenous; details: plasma
# [25] = Drug uptake in tumor of Rowett nude rat xenografted with human KARPAS299 cells at 50 mg/kg, po; type: ADME, organism-based, Neoplasm, KARPAS-299; set-up: dose 50 mg/kg, route oral; details: in vivo
# KARPAS-299 [26] = details: Homo sapiens
# Description: Antitumor activity against human KARPAS299 cells xenografted in po dosed Rowett nude rat assessed as tumor growth inhibition administered for 14 days measured 7 to 72 hrs post dosing
# [27] = Half life in BALB/c mouse at 5 mg/kg, iv; type: ADME, organism-based; set-up: dose 5 mg/kg, route intravenous; details: in vivo
# [28] = Cmax in cynomolgus monkey at 60 mg/kg, po; type: ADME, organism-based, Macaca fascicularis; set-up: dose 60 mg/kg, route oral; details: in vivo
# [29] = Toxicity in po dosed Rowett nude rat xenografted with human NCI-H2228 cells; type: organism-based; details: in vivo
# [30] = Intrinsic clearance in human liver microsomes; type: ADME, Microsome; details: read-out: CLH
# [31] = Solubility of the compound […] at pH 6.8; type: physicochemical
# [32] = Oral bioavailability in Beagle dog at 20 mg/kg; type: ADME, organism-based, Canis lupus familiaris; details: in vivo
# Canis familiaris = species on record: Canis familiaris; test: Cardiotoxicity in dog assessed as QTc prolongation; type: toxicity, organism-based, Canis lupus familiaris; details: in vivo
# [33] = Oral bioavailability in Sprague-Dawley rat at 10 mg/kg; type: ADME, organism-based; details: in vivo
# [34] = biological target: Rho-associated protein kinase 2 (Homo sapiens, UniProt O75116); test: Inhibition of ROCK2 (unknown origin) after 60 mins
# Chain of Rho-associated protein kinase 2 (O75116 whole entry): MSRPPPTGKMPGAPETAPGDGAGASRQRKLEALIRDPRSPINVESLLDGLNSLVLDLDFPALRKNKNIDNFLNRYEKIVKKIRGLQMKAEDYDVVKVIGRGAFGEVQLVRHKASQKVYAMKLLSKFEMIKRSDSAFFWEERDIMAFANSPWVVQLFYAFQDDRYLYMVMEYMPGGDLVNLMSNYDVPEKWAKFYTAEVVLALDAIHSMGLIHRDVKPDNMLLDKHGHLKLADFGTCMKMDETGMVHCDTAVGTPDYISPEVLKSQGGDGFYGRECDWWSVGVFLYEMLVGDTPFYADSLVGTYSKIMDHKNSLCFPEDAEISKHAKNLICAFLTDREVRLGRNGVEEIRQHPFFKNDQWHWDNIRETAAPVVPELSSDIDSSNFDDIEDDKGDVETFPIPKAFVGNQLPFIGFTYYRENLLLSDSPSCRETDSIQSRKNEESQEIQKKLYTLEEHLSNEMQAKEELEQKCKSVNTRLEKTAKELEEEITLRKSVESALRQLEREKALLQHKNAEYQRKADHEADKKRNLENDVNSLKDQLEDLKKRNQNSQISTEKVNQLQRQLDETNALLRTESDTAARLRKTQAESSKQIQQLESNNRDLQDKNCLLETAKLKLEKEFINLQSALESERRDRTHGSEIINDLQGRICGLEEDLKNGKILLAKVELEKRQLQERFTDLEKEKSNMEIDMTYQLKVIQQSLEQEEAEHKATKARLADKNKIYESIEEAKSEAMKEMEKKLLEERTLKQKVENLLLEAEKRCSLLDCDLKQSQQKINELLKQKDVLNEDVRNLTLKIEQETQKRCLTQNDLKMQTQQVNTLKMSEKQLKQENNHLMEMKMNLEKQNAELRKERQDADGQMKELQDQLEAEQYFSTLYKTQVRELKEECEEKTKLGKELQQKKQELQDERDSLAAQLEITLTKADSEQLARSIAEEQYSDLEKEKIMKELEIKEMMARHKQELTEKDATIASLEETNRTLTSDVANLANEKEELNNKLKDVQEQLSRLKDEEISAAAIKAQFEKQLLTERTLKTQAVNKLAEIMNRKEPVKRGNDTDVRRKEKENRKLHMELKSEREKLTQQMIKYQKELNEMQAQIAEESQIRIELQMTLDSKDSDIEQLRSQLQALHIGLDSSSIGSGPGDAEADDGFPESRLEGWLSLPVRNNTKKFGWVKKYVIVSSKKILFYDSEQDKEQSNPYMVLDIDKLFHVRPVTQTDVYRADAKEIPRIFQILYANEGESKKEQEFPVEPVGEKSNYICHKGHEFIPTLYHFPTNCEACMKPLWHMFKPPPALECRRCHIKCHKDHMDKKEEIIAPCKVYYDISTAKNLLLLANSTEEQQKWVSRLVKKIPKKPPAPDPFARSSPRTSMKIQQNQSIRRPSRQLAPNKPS
# [35] = Half life in cynomolgus monkey at 5 mg/kg, iv; type: ADME, organism-based, Macaca fascicularis; set-up: dose 5 mg/kg, route intravenous; details: in vivo
# [36] = biological target: Tyrosine-protein kinase Fgr (Homo sapiens, UniProt P09769); test: Inhibition of TEL-fused FGR (unknown origin) by cell-based assay
# Chain of Tyrosine-protein kinase Fgr (P09769 whole entry, the tested form may be a part): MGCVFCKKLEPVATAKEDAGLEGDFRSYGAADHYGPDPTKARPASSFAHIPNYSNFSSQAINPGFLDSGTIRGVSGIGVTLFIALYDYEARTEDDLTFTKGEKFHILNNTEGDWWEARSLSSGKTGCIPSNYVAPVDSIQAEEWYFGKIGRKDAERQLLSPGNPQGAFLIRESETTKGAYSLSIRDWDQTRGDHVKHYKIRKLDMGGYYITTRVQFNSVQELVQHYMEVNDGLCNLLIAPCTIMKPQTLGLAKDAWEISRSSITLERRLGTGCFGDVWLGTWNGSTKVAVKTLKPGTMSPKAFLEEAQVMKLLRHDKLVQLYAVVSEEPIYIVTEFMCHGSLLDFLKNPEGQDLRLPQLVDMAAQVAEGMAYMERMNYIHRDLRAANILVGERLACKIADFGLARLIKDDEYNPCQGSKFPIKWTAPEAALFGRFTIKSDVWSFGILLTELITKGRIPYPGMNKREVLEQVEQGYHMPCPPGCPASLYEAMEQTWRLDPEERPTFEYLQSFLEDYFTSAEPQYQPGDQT
# [37] = Cmax in Beagle dog at 20 mg/kg, po; type: ADME, organism-based, Canis lupus familiaris; set-up: dose 20 mg/kg, route oral; details: in vivo
# [38] = Inhibition of Aurora kinase (unknown origin) after 60 mins; set-up: species or system Homo sapiens
# [39] = AUC in cynomolgus monkey at 5 mg/kg, iv; type: ADME, organism-based, Macaca fascicularis; set-up: dose 5 mg/kg, route intravenous; details: plasma
# [40] = biological target: Testis-specific serine/threonine-protein kinase 1 (Homo sapiens, UniProt Q9BXA7); test: Inhibition of STK22D (unknown origin) after 60 mins
# Chain of Testis-specific serine/threonine-protein kinase 1 (Q9BXA7 whole entry): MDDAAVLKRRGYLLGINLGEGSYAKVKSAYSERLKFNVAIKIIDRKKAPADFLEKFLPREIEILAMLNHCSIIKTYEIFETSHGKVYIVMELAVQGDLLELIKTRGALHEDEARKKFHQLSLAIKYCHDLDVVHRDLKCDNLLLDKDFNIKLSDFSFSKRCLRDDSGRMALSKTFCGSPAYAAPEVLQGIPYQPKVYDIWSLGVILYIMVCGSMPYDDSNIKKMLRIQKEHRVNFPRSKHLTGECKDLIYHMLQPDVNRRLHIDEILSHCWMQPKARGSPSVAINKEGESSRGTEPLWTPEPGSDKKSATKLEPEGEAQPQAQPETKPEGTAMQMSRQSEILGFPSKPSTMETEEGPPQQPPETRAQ
# [41] = Intrinsic clearance in mouse liver microsomes; type: ADME, Microsome; details: read-out: CLH
# NCI-H2228 = test: Antitumor activity against human NCI-H2228 cells xenografted in Rowett nude rat assessed as tumor growth inhibition factor at 10 mg/kg, po for 14 days measured 7 to 72 hrs post dosing relative to control; type: functional
smiles,measurement,setting,value
Cc1cc(Nc2ncc(Cl)c(Nc3ccccc3S(=O)(=O)C(C)C)n2)c(OC(C)C)cc1C1CCNCC1 [CERITINIB],microsomal CLint,[1],10 µL/min/mg
same,IC50,[2],950 nM
same,inhibition in vivo at 50 mg/kg,Rattus norvegicus,80%
same,T/C,KARPAS-299 [3],74%
same,bioavailability,[4],56%
same,IC50,[5],1340 nM
same,IC50,[6],3360 nM
same,IC50,[7],4210 nM
same,IC50,[8],3250 nM
same,AUC,[9],12.3 µM·h
same,IC50,[10],2730 nM
same,Cmax,[11],2530 nM
same,IC50,[12],7920 nM
same,AUC,[13],67.9 µM·h
same,AUC,[14],5.63 µM·h
same,Activity,Rhesus monkey,Non-toxic
same,IC50,[15],> 10000 nM
same,T/C,KARPAS-299 [16],-33%
same,Vd,[17],21.2 L/kg
same,IC50,[18],1250 nM
same,Tmax,[19],1.8 min
same,clearance,[20],9.2 mL/min/kg
same,AUC,[21],76.3 µM·h
same,AUC,[22],6.09 µM·h
same,IC50,[23],3730 nM
same,AUC,[24],2.78 µM·h
same,Drug uptake,[25],Active
same,TGI,KARPAS-299 [26],Dose-dependent effect
same,half-life,[27],6.2 h
same,Cmax,[28],1700 nM
same,MTD,[29],5 mg/kg
same,microsomal CLint,[30],19 µL/min/mg
same,solubility,[31],24 µM
same,bioavailability,[32],119%
same,Activity,Canis familiaris,Non-toxic
same,bioavailability,[33],66%
same,IC50,[34],1270 nM
same,half-life,[35],26 h
same,IC50,[36],1950 nM
same,Cmax,[37],1900 nM
same,IC50,[38],660 nM
same,AUC,[39],11.3 µM·h
same,IC50,[40],23 nM
same,microsomal CLint,[41],15 µL/min/mg
same,T/C,NCI-H2228,2%
